Measurements published in ChEMBL document CHEMBL3120082, “Synthesis and in vitro anti-proliferative effects of 3-(hetero)aryl substituted 3-[(prop-2-ynyloxy)(thiophen-2-yl)methyl]pyridine derivatives on various cancer cell lines” (Bioorg Med Chem Lett, 2014).
Calls of active or inactive are those of the source. The rule behind the calls is not given here.

Assays:
[1] = Cytotoxicity against human HEK293 cells assessed as cell viability at 10 uM after 24 hrs by MTT assay; type: cell-based; details: read-out: GI
HepG2 = test: Cytotoxicity against human HepG2 cells assessed as cell viability at 10 uM after 24 hrs by MTT assay; type: functional; details: for inhibition of growth at 10 µM: HepG2, 24 h, read-out: GI
[2] = (§1) Cytotoxicity against human IMR32 cells assessed as cell viability at 10 uM after 24 hrs by MTT assay; type: functional; details: IMR-32, 24 h, read-out: GI
MCF7 [3] = test: Cytotoxicity against estrogen receptor-positive human MCF7 cells assessed as cell viability at 10 uM after 24 hrs by MTT assay; type: functional; details: for inhibition of growth at 10 µM: MCF7, 24 h, read-out: GI
MDA-MB-231 [4] = test: Cytotoxicity against estrogen receptor-negative human MDA-MB-231 cells assessed as cell viability at 10 uM after 24 hrs by MTT assay; type: functional; details: for inhibition of growth at 10 µM: MDA-MB-231, 24 h, read-out: GI
COLO 205 = test: Cytotoxicity against human COLO205 cells assessed as cell viability at 10 uM after 24 hrs by MTT assay; type: functional; details: for inhibition of growth at 10 µM: COLO 205, 24 h, read-out: GI
K562 = test: Cytotoxicity against human K562 cells assessed as cell viability at 10 uM after 24 hrs by MTT assay; type: functional; details: for inhibition of growth at 10 µM: K562, 24 h, read-out: GI
IMR-32 = test: as §1; type: functional
MCF7 [5] = test: Cytotoxicity against estrogen receptor-positive human MCF7 cells after 24 hrs by MTT assay; type: functional, cell-based; details: MCF7, 24 h
MDA-MB-231 [6] = test: Cytotoxicity against estrogen receptor-negative human MDA-MB-231 cells after 24 hrs by MTT assay; type: functional, cell-based; details: MDA-MB-231, 24 h

## O=[N+]([O-])c1ccccc1C#CCOC(c1cccs1)c1cccnc1Cl (stereo not given)
[1]
  inhibition at 24 h, 10 µM: 0.1%
HepG2
  inhibition of growth at 10 µM: 46.2%
[2]
  inhibition of growth at 10 µM: 53.2%
MCF7 [3]
  inhibition of growth at 10 µM: 34.8%
MDA-MB-231 [4]
  inhibition of growth at 10 µM: 48%
COLO 205
  inhibition of growth at 10 µM: 16.5%
K562
  inhibition of growth at 10 µM: 18.9%

## O=C(O)COC(c1cccs1)c1cccnc1Cl (stereo not given)
HepG2
  growth inhibition (GI): inactive
IMR-32
  growth inhibition (GI): inactive
MCF7 [3]
  growth inhibition (GI): inactive
MDA-MB-231 [4]
  growth inhibition (GI): inactive
COLO 205
  growth inhibition (GI): inactive
K562
  growth inhibition (GI): inactive

## Clc1ncccc1C(OCC#Cc1ccc(I)cc1)c1cccs1 (stereo not given)
[1]
  inhibition at 24 h, 10 µM: 0%
HepG2
  inhibition of growth at 10 µM: 54.2%
[2]
  inhibition of growth at 10 µM: 60%
MCF7 [3]
  inhibition of growth at 10 µM: 45.6%
MDA-MB-231 [4]
  inhibition of growth at 10 µM: 52.2%
COLO 205
  inhibition of growth at 10 µM: 39%
K562
  inhibition of growth at 10 µM: 48%

## CCOC(=O)COC(c1cccs1)c1cccnc1Cl (stereo not given)
HepG2
  growth inhibition (GI): inactive
IMR-32
  growth inhibition (GI): inactive
MCF7 [3]
  growth inhibition (GI): inactive
MDA-MB-231 [4]
  growth inhibition (GI): inactive
COLO 205
  growth inhibition (GI): inactive
K562
  growth inhibition (GI): inactive

## Oc1ccccc1C#CCOC(c1cccs1)c1cccnc1Cl (stereo not given)
MCF7 [5]
  IC50: 1510 nM
MDA-MB-231 [6]; read-out: IC50
  IC50: 1100 nM
[1]
  inhibition at 24 h, 10 µM: 6%
HepG2
  inhibition of growth at 10 µM: 13.6%
[2]
  inhibition of growth at 10 µM: 34.4%
MCF7 [3]
  inhibition of growth at 10 µM: 67.7%
MDA-MB-231 [4]
  inhibition of growth at 10 µM: 70.8%
COLO 205
  inhibition of growth at 10 µM: 28.5%
K562
  inhibition of growth at 10 µM: 40.6%

## CCOC(=O)c1c[nH]nc1C#CCOC(c1cccs1)c1cccnc1Cl (stereo not given)
[1]
  inhibition at 24 h, 10 µM: 0.4%
HepG2
  inhibition of growth at 10 µM: 34.3%
[2]
  inhibition of growth at 10 µM: 30.9%
MCF7 [3]
  inhibition of growth at 10 µM: 33.8%
MDA-MB-231 [4]
  inhibition of growth at 10 µM: 35.3%
COLO 205
  inhibition of growth at 10 µM: 45.8%
K562
  inhibition of growth at 10 µM: 54.8%

## COc1ccc(C#CCOC(c2cccs2)c2cccnc2Cl)cc1 (stereo not given)
MCF7 [5]
  IC50: 1720 nM
MDA-MB-231 [6]; read-out: IC50
  IC50: 1160 nM
[1]
  inhibition at 24 h, 10 µM: -1.1%
HepG2
  inhibition of growth at 10 µM: 13.9%
[2]
  inhibition of growth at 10 µM: 20.7%
MCF7 [3]
  inhibition of growth at 10 µM: 64.7%
MDA-MB-231 [4]
  inhibition of growth at 10 µM: 70.1%
COLO 205
  inhibition of growth at 10 µM: 31.6%
K562
  inhibition of growth at 10 µM: 33.8%

## OC(c1cccs1)c1cccnc1Cl (stereo not given)
HepG2
  growth inhibition (GI): inactive
IMR-32
  growth inhibition (GI): inactive
MCF7 [3]
  growth inhibition (GI): inactive
MDA-MB-231 [4]
  growth inhibition (GI): inactive
COLO 205
  growth inhibition (GI): inactive
K562
  growth inhibition (GI): inactive

## CCOC(=O)c1sc2c(c1C#CCOC(c1cccs1)c1cccnc1Cl)CCC2 (stereo not given)
[1]
  inhibition at 24 h, 10 µM: -1.6%
HepG2
  inhibition of growth at 10 µM: 21.9%
[2]
  inhibition of growth at 10 µM: 25.2%
MCF7 [3]
  inhibition of growth at 10 µM: 25%
MDA-MB-231 [4]
  inhibition of growth at 10 µM: 37.9%
COLO 205
  inhibition of growth at 10 µM: 46%
K562
  inhibition of growth at 10 µM: 65.1%

## O=C1Nc2ccc(C#CCOC(c3cccs3)c3cccnc3Cl)cc2C1=O (stereo not given)
MCF7 [5]
  IC50: 1050 nM
MDA-MB-231 [6]; read-out: IC50
  IC50: 990 nM
[1]
  inhibition at 24 h, 10 µM: 0.8%
HepG2
  inhibition of growth at 10 µM: 44.8%
[2]
  inhibition of growth at 10 µM: 58.4%
MCF7 [3]
  inhibition of growth at 10 µM: 71.9%
MDA-MB-231 [4]
  inhibition of growth at 10 µM: 72.3%
COLO 205
  inhibition of growth at 10 µM: 49.3%
K562
  inhibition of growth at 10 µM: 61.1%

## COc1cccc2c1C(=O)c1c(O)c3c(c(O)c1C2=O)C[C@@](O)(C(=O)CO)C[C@@H]3O[C@H]1C[C@H](N)[C@H](O)[C@H](C)O1 [DOXORUBICIN]
MCF7 [5]
  IC50: 440 nM
MDA-MB-231 [6]
  IC50: 650 nM

## O=C(O)c1ccccc1C#CCOC(c1cccs1)c1cccnc1Cl (stereo not given)
[1]
  inhibition at 24 h, 10 µM: 2.7%
HepG2
  inhibition of growth at 10 µM: 33.1%
[2]
  inhibition of growth at 10 µM: 38.1%
MCF7 [3]
  inhibition of growth at 10 µM: 35.9%
MDA-MB-231 [4]
  inhibition of growth at 10 µM: 47.9%
COLO 205
  inhibition of growth at 10 µM: 34.7%
K562
  inhibition of growth at 10 µM: 40.2%

## O=C(O)c1ccc(C#CCOC(c2cccs2)c2cccnc2Cl)cc1 (stereo not given)
[1]
  inhibition at 24 h, 10 µM: 4.8%
HepG2
  inhibition of growth at 10 µM: 38.2%
[2]
  inhibition of growth at 10 µM: 39.6%
MCF7 [3]
  inhibition of growth at 10 µM: 35.9%
MDA-MB-231 [4]
  inhibition of growth at 10 µM: 38.9%
COLO 205
  inhibition of growth at 10 µM: 44%
K562
  inhibition of growth at 10 µM: 57.7%

## CCOC(=O)c1c(C#CCOC(c2cccs2)c2cccnc2Cl)sc2c1CCCC2 (stereo not given)
[1]
  inhibition at 24 h, 10 µM: -0.9%
HepG2
  inhibition of growth at 10 µM: 29.5%
[2]
  inhibition of growth at 10 µM: 22.5%
MCF7 [3]
  inhibition of growth at 10 µM: 31.8%
MDA-MB-231 [4]
  inhibition of growth at 10 µM: 46.4%
COLO 205
  inhibition of growth at 10 µM: 32.1%
K562
  inhibition of growth at 10 µM: 53%

## Nc1ccccc1C#CCOC(c1cccs1)c1cccnc1Cl (stereo not given)
MCF7 [5]
  IC50: 1290 nM
MDA-MB-231 [6]; read-out: IC50
  IC50: 950 nM
[1]
  inhibition at 24 h, 10 µM: 3.2%
HepG2
  inhibition of growth at 10 µM: 36.2%
[2]
  inhibition of growth at 10 µM: 47.6%
MCF7 [3]
  inhibition of growth at 10 µM: 69.3%
MDA-MB-231 [4]
  inhibition of growth at 10 µM: 73.3%
COLO 205
  inhibition of growth at 10 µM: 37.8%
K562
  inhibition of growth at 10 µM: 43.8%
